Source: ChEMBL document CHEMBL1141580, “Studies on the chemical constituents and anticancer activity of Saxifraga stolonifera (L) Meeb” (2008)
Calls of active or inactive are those of the source. No cut-off for these calls is given here.

Key:
BGC-823 [1] = test: Growth inhibition of human BGC823 cells at 100 uM after 72 hrs by MTT assay relative to control; assay type: functional; conditions: BGC-823, 72 h, read-out: GI
BGC-823 [2] = test: Growth inhibition of human BGC823 cells at 5 uM after 72 hrs by MTT assay relative to control; assay type: functional; conditions: BGC-823, 72 h, read-out: GI
BGC-823 [3] = test: Growth inhibition of human BGC823 cells at 50 uM after 72 hrs by MTT assay relative to control; assay type: functional; conditions: BGC-823, 72 h, read-out: GI
BGC-823 [4] = test: Growth inhibition of human BGC823 cells at 10 uM after 72 hrs by MTT assay relative to control; assay type: functional; conditions: BGC-823, 72 h, read-out: GI
BGC-823 [5] = test: Induction of apoptosis in human BGC823 cells at 100 uM after 48 hrs by flow cytometry; assay type: functional
BGC-823 [6] = test: Induction of apoptosis in human BGC823 cells assessed as increase in DNA fragmentation at 50 uM after 48 hrs; assay type: functional, cell-based
BGC-823 [7] = test: Effect on cell morphology in human BGC823 cells assessed as chromosomal condensations at 50 uM; assay type: functional, cell-based
BGC-823 [8] = test: Induction of apoptosis in human BGC823 cells at 100 uM after 12 hrs by flow cytometry; assay type: functional
BGC-823 [9] = test: Induction of apoptosis in human BGC823 cells assessed as increase in DNA fragmentation at 100 uM after 48 hrs; assay type: functional, cell-based
BGC-823 [10] = test: Induction of apoptosis in human BGC823 cells at 100 uM after 24 hrs by flow cytometry; assay type: functional
BGC-823 [11] = test: Induction of apoptotic bodies in human BGC823 cells at 50 uM after 48 hrs; assay type: functional, cell-based
BGC-823 [12] = test: Induction of apoptosis in human BGC823 cells at 100 uM after 36 hrs by flow cytometry; assay type: functional
BGC-823 [13] = test: Induction of apoptosis in human BGC823 cells at 20 uM after 48 hrs by flow cytometry; assay type: functional
BGC-823 [14] = test: Induction of apoptosis in human BGC823 cells at 20 uM after 24 hrs by flow cytometry; assay type: functional
BGC-823 [15] = test: Induction of apoptosis in human BGC823 cells at 20 uM after 36 hrs by flow cytometry; assay type: functional
BGC-823 [16] = test: Induction of apoptosis in human BGC823 cells at 20 uM after 12 hrs by flow cytometry; assay type: functional

## O=c1c(O[C@@H]2O[C@H](CO)C(O)[C@H](O)[C@H]2O)c(-c2ccc(O)c(O)c2)oc2cc(O)cc(O)c12 (single isomer, unassigned) [ISOQUERCETIN]
BGC-823 [1]
  inhibition of growth at 100 µM: 12.1%
BGC-823 [2]
  inhibition of growth at 5 µM: 1.5%
BGC-823 [3]
  inhibition of growth at 50 µM: 9.2%
BGC-823 [4]
  inhibition of growth at 10 µM: 8.4%

## O=C(O)c1cc(O)c(O)c(O)c1 [GALLIC ACID]
BGC-823 [1]
  inhibition of growth at 100 µM: 22.5%
BGC-823 [2]
  inhibition of growth at 5 µM: 6.7%
BGC-823 [3]
  inhibition of growth at 50 µM: 16.7%
BGC-823 [4]
  inhibition of growth at 10 µM: 10.2%

## CC[C@H](CC[C@@H](C)[C@H]1CC[C@H]2[C@@H]3CC=C4C[C@@H](O)CC[C@]4(C)[C@H]3CC[C@]12C)C(C)C [BETA-SITOSTEROL]
BGC-823 [1]
  inhibition of growth at 100 µM: 20.4%
BGC-823 [2]
  inhibition of growth at 5 µM: 0.4%
BGC-823 [3]
  inhibition of growth at 50 µM: 15.6%
BGC-823 [4]
  inhibition of growth at 10 µM: 8.8%

## CCCCCCCCCCCCCCCCCCCCCCCCCCCCC [NONACOSANE]
BGC-823 [1]
  inhibition of growth at 100 µM: -6.6%
BGC-823 [2]
  inhibition of growth at 5 µM: -0.9%
BGC-823 [3]
  inhibition of growth at 50 µM: -5.6%
BGC-823 [4]
  inhibition of growth at 10 µM: -5.2%

## O=c1c(O)c(-c2ccc(O)c(O)c2)oc2cc(O)cc(O)c12 [QUERCETIN]
BGC-823 [5]
  Activity: 10.23%
BGC-823 [1]
  inhibition of growth at 100 µM: 39.3%
BGC-823 [2]
  inhibition of growth at 5 µM: 7.5%
BGC-823 [6]
  Activity: Active
BGC-823 [7]
  Activity: Active
BGC-823 [8]
  Activity: 5.02%
BGC-823 [9]
  Activity: Active
BGC-823 [10]
  Activity: 11.82%
BGC-823 [11]
  Activity: Active
BGC-823 [12]
  Activity: 10.19%
BGC-823 [3]
  inhibition of growth at 50 µM: 22.4%
BGC-823 [4]
  inhibition of growth at 10 µM: 11%

## C[C@@H]1O[C@@H](Oc2c(-c3ccc(O)c(O)c3)oc3cc(O)cc(O)c3c2=O)C(O)[C@H](O)C1O (single isomer, unassigned) [QUERCITRIN]
BGC-823 [1]
  inhibition of growth at 100 µM: 10.6%
BGC-823 [2]
  inhibition of growth at 5 µM: 0.2%
BGC-823 [3]
  inhibition of growth at 50 µM: 5.2%
BGC-823 [4]
  inhibition of growth at 10 µM: 3.8%

## CC[C@@]1(O)C(=O)OCc2c1cc1n(c2=O)Cc2cc3cc(O)ccc3nc2-1 [HYDROXYCAMPTOTHECIN]
BGC-823 [13]
  Activity: 6.47%
BGC-823 [14]
  Activity: 4.78%
BGC-823 [15]
  Activity: 13.2%
BGC-823 [16]
  Activity: 3.72%

## COc1c(O)cc2c(c1O)[C@@H]1O[C@H](CO)[C@@H](O)[C@H](O)[C@H]1OC2=O [BERGENIN]
BGC-823 [1]
  inhibition of growth at 100 µM: 10.8%
BGC-823 [2]
  inhibition of growth at 5 µM: -0.8%
BGC-823 [3]
  inhibition of growth at 50 µM: 6.1%
BGC-823 [4]
  inhibition of growth at 10 µM: 2.2%

## CCCCCCCCCCCCCCCCCCCCCCCCCCCCCCC [HENTRIACONTANE]
BGC-823 [1]
  inhibition of growth at 100 µM: 10.1%
BGC-823 [2]
  inhibition of growth at 5 µM: 4.5%
BGC-823 [3]
  inhibition of growth at 50 µM: 7%
BGC-823 [4]
  inhibition of growth at 10 µM: 3.9%
